According to BigSolDB 2.1:

Cc1cc(C)c(C(=O)P(=O)(c2ccccc2)c2ccccc2)c(C)c1
solubility (mole fraction)
Conditions	in acetone	in acetonitrile	in ethanol	in ethyl acetate	in isobutanol	in isopropanol	in methanol	in methyl acetate	in n-butanol	in n-propanol
273.15 K	0.0685	0.0242	0.0761	0.043	0.0761	0.0262	0.11	0.0504	0.0795	0.0827
278.15 K	0.0844	0.0312	0.0895	0.0529	0.0882	0.0366	0.125	0.0616	0.092	0.0983
283.15 K	0.101	0.0482	0.107	0.0621	0.109	0.0544	0.145	0.0767	0.116	0.118
288.15 K	0.12	0.0687	0.13	0.0819	0.133	0.0755	0.172	0.0963	0.139	0.139
293.15 K	0.143	0.101	0.154	0.102	0.159	0.11	0.195	0.12	0.162	0.168
298.15 K	0.169	0.144	0.184	0.126	0.187	0.158	0.233	0.149	0.2	0.196
303.15 K	0.197	0.197	0.218	0.16	0.22	0.21	0.272	0.186	0.236	0.226
308.15 K	0.232	0.271	0.266	0.194	0.256	0.276	0.298	0.229	0.271	0.262
